Reference: PMC12459184, “Design, synthesis, and bioevaluation of pyrazole-containing tubulin polymerisation inhibitors based on conformational constraint strategy” (Journal of Enzyme Inhibition and Medicinal Chemistry, 2025)

System: microtubule network in PC-3 cells
Assay: Immunofluorescence assay of microtubule network
Assay type: cell-based, human
Conditions: 20 nM, 24 h
Description: To evaluate the effects of 4k and 5a on intracellular microtubule, immunofluorescence assay was carried out to observe the changes of microtubule network in cell.
PC-3 cells in logarithmic phase were harvested and seeded onto 12-well cell plates with round coverslip on the bottom of each well at a density of 3 × 10^4 cells per well, and were cultured for 24 h. […] The medium was removed, and cells were washed with PBS twice, fixed with 4% formaldehyde in PBS for 30 min, then the solution was removed. Cells were washed with PBS twice, permeabilized with 0.2% (v/v) Triton X-100 in PBS for 30 min, then the solution was removed. Cells were washed with PBS twice, blocking the cells in 5% bovine serum albumin (BSA) for 30 min. Then BSA was removed, and cells were incubated with the primary α-tubulin antibody (Santa Cruz, CA) containing 2% BSA (v/v, 1: 100) overnight at 4 °C.
The following steps were operated in dark environment. The antibody was removed, then cells were washed with PBST twice and were added FITC-conjugated anti-mouse secondary antibody diluted (1:100) with 2% BSA in PBS and incubated at room temperature for 4 h. The cells were then washed with PBST twice, stained with 4′,6-diamidino-2-phenylindole (DAPI) for 30 min at room temperature, and washed with PBS twice. The round coverslips at the bottom of wells were taken out, and the images were photographed by a confocal microscope.

COc1cc2c(c(OC)c1OC)-c1ccc(OC)c(=O)cc1[C@@H](NC(C)=O)CC2 [Colchicine, reference compound]
effect on microtubule network: microtubule network was destroyed
